In paper PMC8222254, “Self-assembly of an anion receptor with metal-dependent kinase inhibition and potent in vitro anti-cancer properties” (Nature Communications, 2021):
“And” between values parts separate entries of the source, which are not always exact repeats. Equal values may be shown once.

Tests used:
Assay in all cases: Kinase inhibition screen, cell-free 33P ATP assay at 10 μM
Type in all cases: biochemical
[1] = target: T1, 140 purified human kinases (Homo sapiens, UniProt Q8TDC3)
T1 sequence (Q8TDC3 1-778): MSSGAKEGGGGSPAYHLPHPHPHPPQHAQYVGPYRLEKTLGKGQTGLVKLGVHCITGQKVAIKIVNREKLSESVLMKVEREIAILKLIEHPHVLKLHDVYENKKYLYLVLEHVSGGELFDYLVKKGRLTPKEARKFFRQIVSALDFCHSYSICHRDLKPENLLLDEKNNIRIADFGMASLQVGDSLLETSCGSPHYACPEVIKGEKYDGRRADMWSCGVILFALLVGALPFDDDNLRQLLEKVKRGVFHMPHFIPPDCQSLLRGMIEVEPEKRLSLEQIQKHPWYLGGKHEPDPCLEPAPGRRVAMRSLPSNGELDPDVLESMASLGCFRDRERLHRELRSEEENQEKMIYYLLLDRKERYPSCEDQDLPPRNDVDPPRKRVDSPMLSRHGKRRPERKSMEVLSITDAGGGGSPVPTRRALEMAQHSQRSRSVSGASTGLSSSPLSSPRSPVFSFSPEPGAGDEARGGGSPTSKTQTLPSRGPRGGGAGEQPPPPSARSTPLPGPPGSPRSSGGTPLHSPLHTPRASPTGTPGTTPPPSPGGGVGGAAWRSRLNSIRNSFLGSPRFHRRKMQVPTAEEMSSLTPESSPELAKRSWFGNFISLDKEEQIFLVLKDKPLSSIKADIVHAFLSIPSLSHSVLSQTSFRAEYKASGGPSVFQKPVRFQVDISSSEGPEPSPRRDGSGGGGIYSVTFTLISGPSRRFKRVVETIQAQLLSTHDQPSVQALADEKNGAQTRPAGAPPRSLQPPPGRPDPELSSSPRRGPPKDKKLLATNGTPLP
In short: (§1)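 Each complex tested in duplicate at 10 μM; cell-free radiometric assay using ^33P ATP on purified enzymes. Hits mapped by HGNC symbol onto the kinome tree.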

[2] = target: T2, 140 purified human kinases (Homo sapiens, UniProt P33981); details: TTK
T2 sequence (P33981 1-857): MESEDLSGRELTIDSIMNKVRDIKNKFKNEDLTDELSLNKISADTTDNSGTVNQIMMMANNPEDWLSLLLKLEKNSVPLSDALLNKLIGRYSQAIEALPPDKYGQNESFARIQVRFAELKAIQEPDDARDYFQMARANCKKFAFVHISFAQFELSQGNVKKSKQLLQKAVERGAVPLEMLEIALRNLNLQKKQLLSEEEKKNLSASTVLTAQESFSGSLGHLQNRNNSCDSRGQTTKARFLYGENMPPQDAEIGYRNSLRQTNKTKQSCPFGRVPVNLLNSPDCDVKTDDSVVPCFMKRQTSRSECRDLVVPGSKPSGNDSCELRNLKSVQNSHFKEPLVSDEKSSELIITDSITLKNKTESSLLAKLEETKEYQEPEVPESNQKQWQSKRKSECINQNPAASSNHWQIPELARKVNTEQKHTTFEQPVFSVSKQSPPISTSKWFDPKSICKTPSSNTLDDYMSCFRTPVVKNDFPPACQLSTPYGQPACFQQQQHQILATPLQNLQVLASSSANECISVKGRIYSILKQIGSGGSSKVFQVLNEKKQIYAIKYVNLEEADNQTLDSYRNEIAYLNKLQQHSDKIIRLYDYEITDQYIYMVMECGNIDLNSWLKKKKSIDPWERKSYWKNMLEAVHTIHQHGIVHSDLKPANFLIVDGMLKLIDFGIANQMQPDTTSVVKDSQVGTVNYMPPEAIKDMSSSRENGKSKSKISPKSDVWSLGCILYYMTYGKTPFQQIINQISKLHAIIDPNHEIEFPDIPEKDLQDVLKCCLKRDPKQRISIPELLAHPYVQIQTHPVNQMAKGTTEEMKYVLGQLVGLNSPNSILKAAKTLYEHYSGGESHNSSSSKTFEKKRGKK
In short: as §1

[3] = target: T3, 140 purified human kinases (Homo sapiens, UniProt Q8IVH8)
T3 sequence (Q8IVH8 1-894): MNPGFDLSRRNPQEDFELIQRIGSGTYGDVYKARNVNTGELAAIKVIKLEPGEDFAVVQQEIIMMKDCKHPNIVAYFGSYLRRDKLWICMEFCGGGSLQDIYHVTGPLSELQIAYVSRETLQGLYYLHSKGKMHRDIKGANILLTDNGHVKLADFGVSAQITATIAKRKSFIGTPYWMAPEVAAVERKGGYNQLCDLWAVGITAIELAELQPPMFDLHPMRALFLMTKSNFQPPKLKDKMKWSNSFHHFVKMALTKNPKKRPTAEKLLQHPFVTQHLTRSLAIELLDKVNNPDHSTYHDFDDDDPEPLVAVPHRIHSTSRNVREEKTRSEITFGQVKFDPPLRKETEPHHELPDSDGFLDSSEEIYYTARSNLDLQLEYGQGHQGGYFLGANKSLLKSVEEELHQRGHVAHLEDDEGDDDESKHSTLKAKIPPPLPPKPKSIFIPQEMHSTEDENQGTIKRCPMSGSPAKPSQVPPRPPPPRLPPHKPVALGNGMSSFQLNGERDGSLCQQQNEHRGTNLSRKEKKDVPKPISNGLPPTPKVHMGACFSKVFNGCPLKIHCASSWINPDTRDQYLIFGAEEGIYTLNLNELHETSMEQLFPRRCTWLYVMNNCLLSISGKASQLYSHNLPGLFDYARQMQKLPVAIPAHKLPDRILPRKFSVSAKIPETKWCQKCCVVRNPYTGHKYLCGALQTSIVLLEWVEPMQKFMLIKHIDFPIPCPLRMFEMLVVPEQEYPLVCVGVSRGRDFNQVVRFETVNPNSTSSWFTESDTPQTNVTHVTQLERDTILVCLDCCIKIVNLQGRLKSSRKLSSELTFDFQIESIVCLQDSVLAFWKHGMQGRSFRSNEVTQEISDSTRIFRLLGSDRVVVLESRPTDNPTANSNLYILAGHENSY
In short: as §1

[Cu+2].[Cu+2].[Cu+2].c1ccc(-c2csc(NCCN(CCNc3nc(-c4ccccn4)cs3)CCNc3nc(-c4ccccn4)cs3)n2)nc1.c1ccc(-c2csc(NCCN(CCNc3nc(-c4ccccn4)cs3)CCNc3nc(-c4ccccn4)cs3)n2)nc1 [[L2Cu3]6+]
% Inhibition Run 1 ([1]; BRSK1): 95.4%
% Inhibition Run 2 ([1]; BRSK1): 93.2%
% Inhibition, Mean ([1]; BRSK1): 94%
mean % activity ([1]; BRSK1): 5.7%
% activity ([1]; BRSK1, Run 1): 4.6%
% activity ([1]; BRSK1, Run 2): 6.8%
% Activity inhibition Mean ([1]; BRSK1, 10 µM): 94.3%
% Activity inhibition Run 1 ([1]; BRSK1, 10 µM): 95.4%
% Activity inhibition Run 2 ([1]; BRSK1, 10 µM): 93.2%
% Activity remaining Run 1 ([1]; BRSK1, 10 µM): 4.60%
% Activity remaining Run 2 ([1]; BRSK1, 10 µM): 6.80%
% Inhibition Run 1 [2]: 41.9%
% Inhibition Run 2 [2]: 45.5%
% Inhibition, Mean [2]: 44%
mean % activity [2]: 56%
% activity ([2]; Run 1): 58.1%
% activity ([2]; Run 2): 54.5%
% Inhibition Run 1 ([3]; MAP4K3): 72.4%
% Inhibition Run 2 ([3]; MAP4K3): 85.5%
% Inhibition, Mean ([3]; MAP4K3): 79%
mean % activity ([3]; MAP4K3): 21%
% activity ([3]; MAP4K3, Run 1): 27.6%
% activity ([3]; MAP4K3, Run 2): 14.5%

CC(=O)[O-].CC(=O)[O-].CC(=O)[O-].CC(=O)[O-].CC(=O)[O-].CC(=O)[O-].[Zn+2].[Zn+2].[Zn+2].c1ccc(-c2csc(NCCN(CCNc3nc(-c4ccccn4)cs3)CCNc3nc(-c4ccccn4)cs3)n2)nc1.c1ccc(-c2csc(NCCN(CCNc3nc(-c4ccccn4)cs3)CCNc3nc(-c4ccccn4)cs3)n2)nc1 [[L2Zn3]6+]
% Inhibition, Mean ([1]; BRSK1): 32%
% Inhibition, Run 1 / Run 2 ([1]; BRSK1): 39% and 26%
mean % activity ([1]; BRSK1): 68%
% activity ([1]; BRSK1, duplicate runs): 62% and 74%
% Inhibition, Mean [2]: 33%
% Inhibition, Run 1 / Run 2 [2]: 37% and 28%
mean % activity [2]: 67%
% activity ([2]; duplicate runs): 63% and 72%
% Inhibition, Mean ([3]; MAP4K3): 45%
% Inhibition, Run 1 / Run 2 ([3]; MAP4K3): 48% and 43%
mean % activity ([3]; MAP4K3): 55%
% activity ([3]; MAP4K3, duplicate runs): 52% and 58%
